# US11400063B2, “Early administration of low-dose colchicine after myocardial infarction” (INSTITUT DE CARDIOLOGIE DE MONTREAL, priority 2019, dated 2022)
# Where two headings read alike, the source gives them in different places.
# Tests used:
# [1] = system: patients recruited within 30 days after a myocardial infarction; test: COLCOT safety and adverse events (safety population); type: in vivo, human
# Protocol: All serious adverse events were recorded. The only other adverse events recorded were those that were considered to be related to the gastrointestinal system, events that were judged by the investigator to be related to colchicine or placebo, or laboratory abnormalities that had been judged by the investigator to be clinically significant.
# patients with stable CAD = conditions: cited from earlier work
# [2] = safety population, listed as colchicine
compound,measurement,setting,value
"COc1cc2c(c(OC)c1OC)-c1ccc(OC)c(=O)cc1[C@@H](NC(C)=O)CC2 [Colchicine, colchicine]","trial regimen discontinued, % of patients",[1]; at the end of the trial,18.4%
same,incidence of septic shock,[1]; in contrast to canakinumab,did not increase
same,"Anemia, number of patients",[1]; safety population,14 number
same,"Anemia, percent of patients",[1]; safety population,(0.6) percent
same,"Any related adverse event, percent of patients",[1]; safety population,(16.0) percent
same,"Any serious adverse event, number of patients",[1]; safety population,383 number
same,"Any serious adverse event, percent of patients",[1]; safety population,(16.4) percent
same,"Cancer, number of patients",[1]; safety population,43 number
same,"Cancer, percent of patients",[1]; safety population,(1.8) percent
same,"Diarrhea adverse event, number of patients",[1]; safety population,225 number
same,"Diarrhea adverse event, percent of patients",[1]; safety population,(9.7) percent
same,"Flatulence adverse event, number of patients",[1]; safety population,15 number
same,"Flatulence adverse event, percent of patients",[1]; safety population,(0.6) percent
same,"Gastrointestinal adverse event, number of patients",[1]; safety population,408 number
same,"Gastrointestinal adverse event, percent of patients",[1]; safety population,(17.5) percent
same,"Gastrointestinal hemorrhage, number of patients",[1]; safety population,7 number
same,"Gastrointestinal hemorrhage, percent of patients",[1]; safety population,(0.3) percent
same,"Gastrointestinal serious adverse event, number of patients",[1]; safety population,46 number
same,"Gastrointestinal serious adverse event, percent of patients",[1]; safety population,(2.0 ) percent
same,"Hospitalization for heart failure, number of patients",[1]; safety population,25 number
same,"Hospitalization for heart failure, percent of patients",[1]; safety population,(1.1) percent
same,"Infection serious adverse event, number of patients",[1]; safety population,51 number
same,"Infection serious adverse event, percent of patients",[1]; safety population,(2.2) percent
same,"Leukopenia, number of patients",[1]; safety population,2 number
same,"Leukopenia, percent of patients",[1]; safety population,(0.1) percent
same,"Nausea adverse event, number of patients",[1]; safety population,43 number
same,"Nausea adverse event, percent of patients",[1]; safety population,(1.8) percent
same,"Pneumonia serious adverse event, number of patients",[1]; safety population,21 number
same,"Pneumonia serious adverse event, percent of patients",[1]; safety population,(0.9) percent
same,"Septic shock serious adverse event, number of patients",[1]; safety population,2 number
same,"Septic shock serious adverse event, percent of patients",[1]; safety population,(0.1) percent
same,"Thrombocytopenia, number of patients",[1]; safety population,3 number
same,"Thrombocytopenia, percent of patients",[1]; safety population,(0.1) percent
same,"Any related adverse event, number of patients","[1]; safety population, N = 2330",372 number
same,"Any related adverse event, percent of patients",[1]; [2],16.0%
same,"Any serious adverse event, percent of patients",[1]; [2],16.4%
same,"Diarrhea adverse event, percent of patients",[1]; [2],9.7%
same,"Gastrointestinal adverse event, percent of patients",[1]; [2],17.5%
same,"Infection serious adverse event, percent of patients",[1]; [2],2.2%
same,"Nausea adverse event, percent of patients",[1]; [2],1.8%
same,"Pneumonia serious adverse event, percent of patients",[1]; [2],0.9%
same,serious adverse event of myopathy linked to colchicine,[1]; statins used in 99% of trial participants,no serious adverse event
same,"Primary composite outcome (cardiovascular mortality, myocardial infarction, ischemic stroke, urgent revascularization), Events N","patients with stable CAD; LoDoCo2, N = 2762, median follow-up 28.6 months",187 N
same,"Cardiovascular mortality, HR (95% CI)","patients with stable CAD; LoDoCo2, colchicine vs placebo",0.80 (0.44-1.44)
same,"Ischemic stroke, HR (95% CI)","patients with stable CAD; LoDoCo2, colchicine vs placebo",0.66 (0.35-1.25)
same,"Myocardial infarction, HR (95% CI)","patients with stable CAD; LoDoCo2, colchicine vs placebo",0.70 (0.53-0.93)
same,"Primary composite outcome, HR (95% CI)","patients with stable CAD; LoDoCo2, colchicine vs placebo",0.69 (0.57-0.83)
same,"Urgent coronary revascularization, HR (95% CI)","patients with stable CAD; LoDoCo2, colchicine vs placebo",0.75 (0.60-0.94)
same,"all-cause mortality, HR","patients with stable CAD; LoDoCo2, colchicine vs placebo",1.21
same,"Myocardial infarction, HR (95% CI)","patients with stable CAD; LoDoCo2, colchicine vs placebo, listed as colchicine",0.70
same,"Cardiovascular mortality, Events %",patients with stable CAD; LoDoCo2,0.7%
same,"Cardiovascular mortality, Events N",patients with stable CAD; LoDoCo2,20 N
same,"Ischemic stroke, Events %",patients with stable CAD; LoDoCo2,0.6%
same,"Ischemic stroke, Events N",patients with stable CAD; LoDoCo2,16 N
same,"Myocardial infarction, Events %",patients with stable CAD; LoDoCo2,3.0%
same,"Myocardial infarction, Events N",patients with stable CAD; LoDoCo2,83 N
same,"Primary composite outcome, Events %",patients with stable CAD; LoDoCo2,(6.8%)
same,"Urgent coronary revascularization, Events %",patients with stable CAD; LoDoCo2,(4.9%)
same,"Urgent coronary revascularization, Events N",patients with stable CAD; LoDoCo2,135 N
